In patent publication US20170165317A1, “METHOD FOR MITIGATING OR ALLEVIATING SYNAPTIC AND COGNITIVE DEFICITS” (Trustees of Dartmouth College, priority 2013, published 2017):

Legend:
[1] = biological target: T1, Aβ42 (Homo sapiens, UniProt P05067); test: Thioflavin-T fluorescence assay of Aβ42 aggregation; format: biochemical; details: 50 nM VO-OHpic or 15 nM bPV(HOpic), 37° C.
T1 construct: Lyophilized Aβ42 peptide was purchased from Keck Facility at Yale University; purchased Keck Facility at Yale University; host or cells: synthetic peptide
T1 sequence (P05067 672-713): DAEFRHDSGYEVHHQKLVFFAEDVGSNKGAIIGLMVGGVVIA
Method: Freshly prepared Aβ42 was prepared as described for protofibrillar Aβ42. The Thioflavin-T (ThT) assay was carried out at 37° C., within a dark chamber in a 96-well plate. Each well contained 100 ng/μL of Aβ42, 20 μM ThT and 50 nM VO-OHpic or 15 nM bPV(HOpic). Fluorescence (λex=450 nm; λem=485 nm) was followed over time in a FLUOSTAR OPTIMA (BMG LabTech) fluorescence spectrophotometer. Samples were run in triplicates. […] Thus, the observed rescue of basal synaptic transmission, LTP and cognition, with VO-OHpic was not likely due to an altered aggregation state of Aβ upon PTEN inhibition.

[2] = system: APP/PS1 mice; test: Contextual fear conditioning after i.c.v. infusion; format: in vivo, mouse; details: VO-OHpic infusion
Method: APP/PS1 and wild-type mice were anesthetized with isofluorane, and i.c.v. delivery cannulas (brain alzet kit III) were implanted with a stereotaxic frame (KOPF Instruments) at the following coordinates according to the bregma: AP, −0.5 mm; ML, 1 mm; and DV, −2.2 mm. Osmotic minipumps (Alzet) were filled with artificial cerebrospinal fluid (aCSF) with or without PTEN inhibitor VO-OHpic (2.5 μM) and equilibrated in 0.9% NaCl at 37° C. for 48 hours. They were attached to the i.c.v. cannula tubing and subcutaneously implanted at the back. After 21 days, behavioral testing was started as described herein. […]
Fear conditioning. […] The animals' behavior was scored by an observer blind to the treatment condition. Using a time-sampling procedure every 2 seconds, each mouse was scored blindly as either freezing or active at the instant the sample was taken. […]
It was posited that if early Aβ-induced cognitive impairment results from a general synaptic bias toward LTD events (Selkoe (2002) Science 298:789-791), dampening this form of synaptic plasticity might prevent cognitive decay. Therefore, it was determined whether in vivo inhibition of PTEN, a lipid phosphatase that is involved in LTD (Jurado, et al. (2010) EMBO J. 29:2827-2840), would rescue cognitive deficits in APP/PS1 mice. […]

[3] = system: APPswe/lnd-EGFP infected neurons; test: APP expression, APP fragments and Aβ production/secretion in APPswe/lnd-infected slice cultures (ELISA, western blot); format: cell-based, rat; details: slice cultures with or without PTEN inhibitor
Method: Hippocampal slices overexpressing Aβ were maintained for 3 days after virus injection with or without the PTEN inhibitor VO-OHpic, before culture medium was collected for measurements. Aβ40 and Aβ42 level were determined in solubilized hippocampal fractions, cultured hippocampal slices or conditioned media by ELISA according to the manufacturer's instructions (WAKO/Invitrogen) that specifically detect the C-terminus of Aβ40 and Aβ42, respectively.
Hippocampi from APP/PS1 mice or their wild-type littermates and organotypic hippocampal slices infected with APPswe/lnd-EGFP/APPwt-EGFP/APPMV-EGFP were solubilized, and extracts were prepared for western blot analysis. […] APPsα was detected in conditioned media of the respective slices using antibody 6E10 that selectively detects human APPsα. Levels of APP, CTFα and CTFβ were detected in lysates of the infected slices using APPCt antibody. […]
However, this form of depression may in principle be due to Aβ exposure, to intracellular fragments derived from APP processing, or a combination thereof. To test the role of PTEN specifically in the effects of neuron-secreted Aβ, synaptic dysfunctions were monitored in untransfected cells neighboring APPswe/lnd-expressing neurons. […]

O=C(O)c1ncccc1O.O=C(O)c1ncccc1O.[O]=[V][O-] [VO-OHpic]
Aβ42 aggregation (ThT fluorescence) [1]: does not alter Aβ42 aggregation | contextual fear conditioning performance (percentage freezing to the context) ([2]; APP/PS1 mice, P=0.002): significantly improved their performance | contextual fear conditioning performance (percentage freezing to the context) ([2]; wild-type mice): without altering | recombinant APP expression, formation of C-terminal APP fragments, Aβ production/secretion [3]: independent of VO-OHpic treatment
